Like-named read-outs stand apart in the source and are kept apart here.
Key:
[1] = target: T1, Saccharomyces cerevisiae (yeast) α-glucosidase (Saccharomyces cerevisiae, UniProt P53341); assay: α-Glucosidase inhibitory activity determination (pNPG substrate); format: biochemical; settings: for inhibition at 7.81 µg/mL: read-out: Maximum Inhibition (%), recorded at 7.81 μg/mL
T1 construct: purchased Sigma Chemical Co., St. Louis City, MO, USA
Description: The α-glucosidase inhibitory activity was closely detected following the method described in detail by Nguyen et al. (2018). The mixture of 50 μL α-glucosidase, 50 μL sample solutions, 100 μL buffer was pre-incubated at 37 °C for 20 min; the reaction then started when 50 μL of p-nitrophenyl glucopyranoside (10 mmol/L) was added to the mixture. After incubation at the same temperature for 30 min, the reaction was stopped by adding 100 μL Na2CO3 solution (1 mol/L) to the reaction mixture; the absorbance of this final mixture was then measured at 410 nm (A). The control group also underwent the same described method with the use of 50 μL buffer instead of 50 μL sample solutions; the absorbance was recorded at 410 nm (B). The aGI activity (%) was calculated using the following equation: aGI (%) = (A − B)/ A × 100.
The inhibition was also expressed as IC50 value determined as per the previous study. The enzyme and the samples were prepared in 0.1 mol/L potassium phosphate buffer (pH 7). […]

ICR mice = assay: Starch tolerance test: effect on reducing plasma glucose in ICR mice; format: in vivo, mouse; settings: oral
Source text: Animals: seven week-old male ICR (Institute of Cancer Research) mice were purchased from The National Laboratory Animal Center (No. 128, Sec. 2, Academia Rd., Nangang Dist., Taipei City 11529, Taiwan) and tested in accordance with the approval and guidelines of the Institutional Animal Care and Use Committee of the National Research Institute of Chinese Medicine, Ministry of Health and Welfare (IACUC No. 104-706-1, 29 December 2014). […] Distilled water was used to prepare the condensed tannins and acarbose solutions.
Assay: The effect of condensed tannin-ELCTB-3.1.1 on the reduction of plasma glucose in mice was performed according to the experimental animal protocol described by Nguyen et al. (2017) with the use of starch solution (3 g/kg bw) instead of sucrose solution administered to ICR mice.

[2] = read-out: Maximum Inhibition (%), recorded at 250 μg/mL
[3] = read-out: α-glucosidase inhibition, aGI (%), primary test of 26 isolated compounds at 250 µg/mL (Figure 2)
[4] = IC50, isolated compounds (Table 3)
[5] = isolated compounds (Table 3), read-out: IC50 (converted)

T1 sequence (P53341 whole entry): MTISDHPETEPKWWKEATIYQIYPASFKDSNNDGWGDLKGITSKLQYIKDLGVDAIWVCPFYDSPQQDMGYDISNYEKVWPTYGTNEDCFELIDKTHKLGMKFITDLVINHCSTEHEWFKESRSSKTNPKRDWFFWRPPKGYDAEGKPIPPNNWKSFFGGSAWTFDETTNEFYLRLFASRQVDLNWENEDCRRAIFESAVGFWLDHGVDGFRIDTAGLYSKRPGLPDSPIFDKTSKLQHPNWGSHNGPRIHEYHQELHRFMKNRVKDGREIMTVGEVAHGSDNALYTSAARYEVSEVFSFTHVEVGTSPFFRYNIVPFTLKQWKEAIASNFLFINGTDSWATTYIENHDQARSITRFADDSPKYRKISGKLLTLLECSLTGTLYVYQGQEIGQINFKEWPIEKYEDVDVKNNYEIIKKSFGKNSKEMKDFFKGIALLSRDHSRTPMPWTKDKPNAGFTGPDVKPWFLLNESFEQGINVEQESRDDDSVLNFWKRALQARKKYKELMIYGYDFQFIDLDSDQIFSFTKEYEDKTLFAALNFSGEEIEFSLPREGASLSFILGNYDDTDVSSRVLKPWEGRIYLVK

Compound: COc1cc(O[C@@H]2O[C@H](CO)[C@@H](O)[C@H](O)[C@H]2O)cc(OC)c1O [Compound 9, 1-β-D-glucopyranosyloxy-3,5-dimethoxy-4-hydroxybenzene]
- inhibition at 250 µg/mL [1, 2]: ≤ 38%
- inhibition at 250 µg/mL [1, 3]: 38 to 60%

Compound: Oc1cc(O)c2c(c1)O[C@@H](c1cc(O)c(O)c(O)c1)[C@H](O)C2 [Compound 10, (−)-Gallocatechin]
- IC50 [1, 4]: 38.9 µM
- inhibition at 250 µg/mL [1, 2]: 93 ± 2.9%

Compound: CC1=CC(=O)OCC1O[C@@H]1O[C@H](CO)[C@@H](O)[C@H](O)[C@H]1O (stereo partly drawn) [Compound 1, Walterolactone A/B β-D-pyranoglucoside]
- IC50 [1]: 3.12 µM
- inhibition at 7.81 µg/mL [1]: 100 ± 5.8%

Compound: COC(=O)c1cc(O)c(O)c(O)c1 [Compound 20, Methyl galloate]
- IC50 [1, 4]: 597 µM
- inhibition at 250 µg/mL [1, 2]: 58 ± 1.2%

Compound: O=C(c1ccc(O)cc1)C(O)CO[C@@H]1O[C@H](CO)[C@@H](O)[C@H](O)[C@H]1O (stereo partly drawn) [Compound 11, Schweinfurthinol 9-O-β-D-pyranoglucoside]
- IC50 [1]: 91.8 µM
- inhibition at 250 µg/mL [1, 2]: 87 ± 4%
- inhibition at 250 µg/mL [1, 3]: 90 to 100%

Compound: CC(C)=CC(=O)O[C@@H]1[C@H](O)[C@H](O)[C@@H](O)[C@H](O)[C@H]1O [Compound 12, 1-O-(3-methyl)-butenoyl-myo-inositol]
- IC50 [1, 5]: 103 µM
- inhibition at 250 µg/mL [1, 2]: 96 ± 6.9%

Compound: Oc1cc(O)c2c(c1)O[C@H](c1ccc(O)c(O)c1)[C@@H](O)C2 [Compound 19, (+)-Catechin]
- IC50 [1, 5]: 0.389 µM
- inhibition at 0.977 µg/mL ([1]; read-out: Maximum Inhibition (%), recorded at 0.977 μg/mL): 100 ± 5.9%

Compound: Oc1cc(O)c2c(c1)O[C@@H](c1ccc(O)c(O)c1)[C@H](O)C2 [Compound 23, (−)-Catechin]
- inhibition at 250 µg/mL [1, 2]: ≤ 38%

Compound: C[C@H]1O[C@H](O[C@H]2[C@H](O)[C@@H](O)[C@@H](O[C@H]3[C@H](O)[C@@H](O)C(O)O[C@@H]3CO)O[C@@H]2CO)[C@H](O)[C@@H](O)[C@@H]1N[C@H]1C=C(CO)[C@@H](O)[C@H](O)[C@H]1O (stereo partly shown) [Acarbose, reference compound]
- inhibition at 2500 µg/mL ([1]; read-out: Maximum Inhibition (%), acarbose, recorded at 2500 μg/mL (Table 3)): 65 ± 2.7%
- inhibition at 2500 µg/mL ([1]; read-out: α-Glucosidase Inhibitory Activity Inhibition (%), yeast α-glucosidase, acarbose tested at 2500 μg/mL (Table 2)): 64 ± 2.4%
- mice with symptoms of diarrhea (ICR mice; acarbose 25 mg/kg bw): 20%
- mice with symptoms of diarrhea (ICR mice; acarbose 50 mg/kg bw): 50%

Compound: COc1cc(O)cc(OC)c1O[C@@H]1O[C@H](CO)[C@@H](O)[C@H](O)[C@H]1O [Compound 14, Leonuriside]
- IC50 [1, 5]: 2.79 µM
- inhibition at 7.81 µg/mL [1]: 99 ± 6.4%
